Test system: Staphylococcus aureus
Experiment: Antibacterial activity against Staphylococcus aureus ATCC 25923 assessed as growth inhibition after 24 hrs by microdilution method
Type: functional, organism-based

Row | Molecule | IC50 (Staphylococcus aureus, ATCC 25923, 24 h) | IC50
1 | O=C(N[C@H](CO)[C@H](O)c1ccc([N+](=O)[O-])cc1)C(Cl)Cl [CHLORAMPHENICOL] | 430 nM | 
2 | GENTAMICIN |  | 10 nM
